Data on five molecules can be found in patent US20060252026A1, “Cryopreservation method for bivalve oocytes” (priority 2005, published 2006).

For assay [1], the system named is Pacific oyster (Crassostrea gigas) oocytes. The following applies: Example 2.7.
Description: Approximately 2.2 million unfrozen or thawed oocytes from 8 individuals were added to 500 mL of SW and fertilised at a ratio of 100 sperm per oocyte. After a contact time of ˜12 min, the fertilised oocytes were transferred into tanks containing 150 L of SW and 1 mg L^−1 EDTA at 23° C. After 24 h, the tanks were drained through a 45-μm mesh and subsamples taken to determine the percentage of oocytes reaching D-larvae in each treatment.
The number of D-larvae was standardized for each female so that the four rearing tanks (2×cryopreserved and 2×unfrozen) all contained the same number of larvae. The larvae were resuspended in 2.5 L tanks in a continuous exchange larval rearing system and fed a mixed diet of Chaetoceros calcitrans and Isochrisis galbana (A Janke, H Kaspar, N King, S Foster, Abstracts of the World Aquaculture Society Conference, 1st-4th Mar. 2004, Hawaii, World Aquaculture Society, Louisiana State University, Baton Rouge, La., (2004), 312). Tanks were cleaned and larvae screened every second day to remove dead, abnormal or slow-growing larvae. Competent larvae were induced to metamorphose by bath application of 10^−4 M epinephrine (S L Coon, D B Bonar, Journal of Experimental Marine Biology and Ecology, (1985), 94, 211) for 3 to 5 h. […] The number of D-larvae in each treatment that developed to eyed larvae stage and spat was determined. […]
The test system is the same in assay [2]. Description: Post-thaw fertilisation assay of cryopreserved oocytes. It counts as cell-based. The following applies: for post-thaw fertilisation rate: Example 2.9, ten percent EG. How it is done: Cryopreservation straws (0.25 cc, IMV, France) were then loaded with the solution containing oocytes and CPA, sealed with PVC powder and laid flat on a rack. The total time at room temperature was 20 min. Loaded straws were placed into Cryogenesis freezers (Cryologic Pty Ltd, Mt Waverly, Australia) and held at 0° C. for 5 min. […] Following the hold period, the freezers were then programmed to cool at various rates (standard: 1° C. min^-1) to -35° C. at which temperature the straws were plunged into liquid nitrogen and stored. After up to 24 h storage, the straws were thawed by placing into a water bath at 28° C. […] After dilution, the thawed oocytes along with unfrozen oocytes from the same batch (controls) were fertilised using the miniaturised fertilisation assay described previously ([…] Smith, R D Roberts, A R Janke, […] Pugh, S C Webb, N G King, Aquaculture (2004) 242, 271). […] Duplicate assays were conducted on each straw and assays included a negative control where no sperm were added to check for parthenogenetic activation. […] All CPA concentrations are the final post-dilution levels. Fertilisation results from each experiment were used to determine factors to be evaluated in subsequent experiments. […] Each pool comprised oocytes from 4 to 8 oysters. […] Three new pools were selected from 11 available pools for Examples 2.4 to 2.6.

Assay [3] has as its system Eastern Oyster (Crassostrea virginica) oocytes. The following applies: Me2SO or sucrose as CPA; cited from earlier work.
Assay [4] concerns Pacific oyster oocytes. The following applies: Me2SO as CPA; cited from earlier work.
For assay [5], the system named is Pacific oyster oocytes. The following applies: Me2SO as CPA in the presence of trehalose; cited from earlier work.

Turning to `OCCO` [EG, ethylene glycol], the “percentage of fertilised oocytes developing to D-larvae, fresh versus cryopreserved” value in assay [1] (P=0.126) is given as “no significant difference”. Moreover, the “proportion of larvae developing to eyed larvae or spat, fresh versus cryopreserved” value in assay [1] (P=0.516 and 0.418) is reported as “no difference”. The post-thaw fertilisation in assay [2] (Example 2.10, 10% EG in MQ, thawed in water bath at 3° C.) is listed as 79%; in assay [2] (Example 2.10, 10% EG in MQ, thawed in water bath at 28° C.), 71%; in assay [2] (Example 2.10, 10% EG in MQ, thawed in water bath at 60° C.), 61%; in assay [2] (Example 2.10, 10% EG in MQ, thawed in water bath at 90° C.), 52%; in assay [2] (Example 2.8, 10% EG in MQ, plunging at −25° C.), 5%; in assay [2] (Example 2.8, 10% EG in MQ, plunging at −35° C.) it was 72%. In assay [2] (Example 2.8, 10% EG in MQ, plunging at −45° C.), this molecule had a post-thaw fertilisation of 76%. Besides, the oocyte fertilisation post-thaw entry in assay [2] (Example 2.1, 100% EG (so in the source) in MQ with 0.85% w/v PVP, standard freezing/thawing) is reported as “Highest fertilisation rates”; in assay [2] (Example 2.7, 10% EG in MQ, no PVP, −10° C. hold, 0.3° C. min−1 to −35° C., mean±se) it was 52.1±1.2%. Further, in assay [2] (Example 2.5, 10% EG in MQ, holding for 5 min at either −10 or −12° C.), the “oocyte fertilisation post-thaw, effect of holding temperature” value is “best results”. In addition, the “oocyte fertilisation post-thaw, effect of freezing rate” value in assay [2] (Example 2.6, 10% EG in MQ, slowest post-hold cooling rate (0.3° C. min−1)) is listed as “best results”. Moreover, the post-thaw fertilisation rate was determined as 31% in assay [2] (held at −16° C. for 5 min) and 3% in assay [2] (held at −20° C. for 5 min).

As to `C[S+](C)[O-]` [Me2SO, dimethyl sulfoxide], in assay [3], the “fertilisation of oocytes after cryopreservation” value is given as “none of the oocytes were able to be fertilised” and the “oocytes staining as live after cryopreservation” value was 7%. The “outcome of cryopreservation attempt” value in assay [4] is “entirely unsuccessful”. The oocyte fertilisation post-thaw entry in assay [2] (Example 2.1, 15% Me2SO in MQ with 0.85% w/v PVP, standard freezing/thawing) is listed as “Highest fertilisation rates”. Also, in assay [5], the “fertilisation achieved with the thawed oocytes” value is “less than 0.5%” and the “thawed oocytes developing to D-larvae” value is listed as “less than 0.005%”.

With `CO` [methanol], the oocyte fertilisation post-thaw result in assay [2] (Example 2.1, methanol 2.5, 5, 10% v/v in MQ with 0.85% w/v PVP, standard freezing/thawing) is listed as “No oocytes were fertilised”.

In the case of `OC[C@H]1O[C@@](CO)(O[C@H]2O[C@H](CO)[C@@H](O)[C@H](O)[C@H]2O)[C@@H](O)[C@@H]1O` [sucrose], in assay [3], the “fertilisation of oocytes after cryopreservation” value was “none of the oocytes were able to be fertilised” and the “oocytes staining as live after cryopreservation” value is listed as 7%.

For `OC[C@H]1O[C@H](O[C@H]2O[C@H](CO)[C@@H](O)[C@H](O)[C@H]2O)[C@H](O)[C@@H](O)[C@@H]1O` [trehalose], the “effect on oocyte fertilisation post-thaw” value in assay [2] (Example 2.2, trehalose above 0.1 M added to 10% EG in MQ) was “significant reduction in fertilisation”.
